In US11382850B2, “Compositions and methods for inhibiting growth of caries-, gingivitis- and halitosis-causing bacteria” (DoseBiome Inc., priority 2019, dated 2022):

What was measured:
Format in all cases: cell-based
[1] = tested on: Porphyromonas gingivalis ATCC 33277; test: Growth inhibition assay, P. gingivalis (colony counts normalized to pH-matched Schaedler's broth)
Description: Solobacterium moorei DSM 22971 and Porphyromonas gingivalis ATCC 33277 were grown in Schaedler's broth (Himedia) or Brucella blood agar with hemin and vitamin K (Hardy Diagnostics) under anaerobic conditions at 37° C. Anaerobic conditions were maintained using the Anaerogen atmosphere generation system (Oxoid). Streptococcus mutans UA159 were grown in Brain Heart Infusion (BHI; Hardy Diagnostics) under 5% CO2 at 37° C. Various concentrations of xylitol (Acros Organics), erythritol (Acros Organics) and/or polyphenon 60 (Sigma) were dissolved in Schaedler's broth or BHI broth. […] The mixtures were pH adjusted using either hydrochloric acid or sodium hydroxide to a final pH of 6.5±0.1, 7.5±0.1 or 8.5±0.1. All test products were filter-sterilized after pH adjustment. […] After 48 h of incubation, various dilutions of the cells were spotted into Brucella blood agar with hem in and vitamin K, and incubated for 48 h for S. moorei, and for 72 h for P. gingivalis. Cell counts were normalized against growth in Schaedler's broth adjusted to their respective testing pH. […] The percent inhibition was measured by normalizing the results against P. gingivalis grown in media with the corresponding pH adjustment. […] The percent inhibition was measured by normalizing the results against P. gingivalis grown in media with the corresponding pH adjustment.

[2] = tested on: Solobacterium moorei DSM 22971; test: Growth inhibition assay, S. moorei (colony counts normalized to pH-matched Schaedler's broth)
Description: Solobacterium moorei DSM 22971 and Porphyromonas gingivalis ATCC 33277 were grown in Schaedler's broth (Himedia) or Brucella blood agar with hemin and vitamin K (Hardy Diagnostics) under anaerobic conditions at 37° C. Anaerobic conditions were maintained using the Anaerogen atmosphere generation system (Oxoid). Streptococcus mutans UA159 were grown in Brain Heart Infusion (BHI; Hardy Diagnostics) under 5% CO2 at 37° C. Various concentrations of xylitol (Acros Organics), erythritol (Acros Organics) and/or polyphenon 60 (Sigma) were dissolved in Schaedler's broth or BHI broth. […] The mixtures were pH adjusted using either hydrochloric acid or sodium hydroxide to a final pH of 6.5±0.1, 7.5±0.1 or 8.5±0.1. All test products were filter-sterilized after pH adjustment. […] After 48 h of incubation, various dilutions of the cells were spotted into Brucella blood agar with hem in and vitamin K, and incubated for 48 h for S. moorei, and for 72 h for P. gingivalis. Cell counts were normalized against growth in Schaedler's broth adjusted to their respective testing pH. […] The percent inhibition was measured by normalizing the results against S. moorei grown in media with the corresponding pH adjustment. […] The percent survival was measured by normalizing the results against S. moorei grown in media with the corresponding pH adjustment. […] The percent inhibition was measured by normalizing the results against S. moorei grown in media with the corresponding pH adjustment. An upper limit of 0.1 mg/mL polyphenon 60 was used in order to be able to assess the pH effects.

[3] = tested on: Streptococcus mutans UA159; test: Growth inhibition assay, S. mutans (colony counts normalized to pH-matched BHI); conditions: 1% (w/v) or 10% (w/v) sugar alcohol alone, pH 6.5, 7.5 or 8.5
[4] = 10% sugar alcohol alone, pH 6.5
[5] = 10% sugar alcohol alone, pH 7.5
[6] = 10% sugar alcohol alone, pH 8.5

Row | SMILES | Survival of P. gingivalis ([1]; 1% sugar alcohol alone, pH 6.5) | Survival of P. gingivalis ([1]; 1% sugar alcohol alone, pH 7.5) | Survival of P. gingivalis ([1]; 1% sugar alcohol alone, pH 8.5) | Survival of P. gingivalis [1, 4] | Survival of P. gingivalis [1, 5] | Survival of P. gingivalis [1, 6] | S. moorei survival ([2]; 1% sugar alcohol alone, pH 6.5) | S. moorei survival ([2]; 1% sugar alcohol alone, pH 7.5) | S. moorei survival ([2]; 1% sugar alcohol alone, pH 8.5) | S. moorei survival [2, 4] | S. moorei survival [2, 5] | S. moorei survival [2, 6] | inhibitory activity on growth of S. mutans [3] | inhibition of S. moorei growth ([2]; on its own at varying concentrations, any pH)
1 | OC[C@@H](O)[C@H](O)[C@@H](O)CO [xylitol] | 69.8% | 63.2% | 60.0% | 14.3% | 8.9% | 7.4% | 52.0% | 53.3% | 17.3% | 52.6% | 53.6% | 26.8% | had inhibitory activity | –
2 | OC[C@@H](O)[C@@H](O)CO [erythritol] | 92.1% | 75.4% | – | 41.1% | 19.9% | 13.6% | – | – | – | 140.4% | 156.9% | 162.0% | inhibit growth | did not inhibit
